For 23 compounds, EC50 and IC50 results are on record in patent US11066414B2, “Cot modulators and methods of use thereof” (Gilead Sciences, Inc., priority 2015, dated 2021).

pEC50, pIC50: −log10 of the molar value. Like-named read-outs stand apart in the source and are kept apart here.

By pEC50 is commonly meant the EC50 on a negative log10 scale, so that one unit is a factor of ten. For orientation: pIC50 means −log10 of the IC50, conventionally taken in molar units.

In assay [1] the test system is TNFα. In words: Cot Monocyte TNFα Cell Based Assay.
Assay [2] addresses Human Cot (Homo sapiens (Human), UniProt P41279). In words: High Throughput Cot Biochemical Assay. The following applies: Cot HTRF (TR-FRET) biochemical assay. (In general: TR-FRET usually uses a lanthanide donor and a delayed reading to cut background.)
Setting [3] is: Homo sapiens, Monocyte, read-out: EC50 TNF, LPS-stimulated human monocytes, TNFα.

Sequence of Human Cot (P41279 30-397): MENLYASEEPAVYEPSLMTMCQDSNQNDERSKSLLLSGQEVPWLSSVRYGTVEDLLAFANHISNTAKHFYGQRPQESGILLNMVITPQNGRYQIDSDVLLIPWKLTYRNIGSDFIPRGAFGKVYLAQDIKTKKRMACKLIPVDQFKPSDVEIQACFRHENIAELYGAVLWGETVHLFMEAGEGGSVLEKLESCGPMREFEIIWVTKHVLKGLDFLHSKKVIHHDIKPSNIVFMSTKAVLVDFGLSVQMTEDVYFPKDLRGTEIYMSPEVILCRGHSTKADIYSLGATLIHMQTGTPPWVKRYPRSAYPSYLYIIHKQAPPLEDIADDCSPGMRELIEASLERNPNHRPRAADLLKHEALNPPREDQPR

Consider `Cc1nc(F)ccc1[C@@H](Nc1cc(Cl)c2ncc(C#N)c(N[C@H](CCC#N)c3ccccc3)c2c1)c1cn(C2CC2)nn1` [Example 438, 8-chloro-4-(((R)-3-cyano-1-phenyl-propyl)amino)-6-(((R)-(1-cyclopropyl-1H-1,2,3-triazol-4-yl)(6-fluoro-2-methylpyridin-3-yl)methyl)amino)-quinoline-3-carbonitrile], for which the pEC50 in assay [1] (setting [3]) was 6.00. In assay [2] (IC50 HTRF), this compound showed a negative-log IC50 (pIC50) of 6.33.

Regarding `CC[C@@H](Nc1c(C#N)cnc2c(Cl)cc(N[C@H](c3cn(C4(C(F)(F)F)CC4)nn3)c3ccc(F)nc3C)cc12)c1ccccc1` [Example 440, 8-chloro-6-(((S)-(6-fluoro-2-methyl-pyridin-3-yl)(1-(1-(trifluoromethyl)-cyclopropyl)-1H-1,2,3-triazol-4-yl)methyl)amino)-4-(((R)-1-phenyl-propyl)amino)quinoline-3-carbonitrile], the pEC50 in assay [1] (setting [3]) is 6.77. For the same compound, in assay [2] (IC50 HTRF), the negative logarithm of the IC50 (pIC50) was 8.15.

In the case of `CC(C)(C)CNc1c(C#N)cnc2c(S(C)(=O)=O)cc(N[C@H](c3cn(C4(C(F)(F)F)CC4)nn3)c3cccc4ncsc34)cc12` [Example 442, (S)-6-((benzo[d]thiazol-7-yl(1-(1-(trifluoromethyl)cyclopropyl)-1H-1,2,3-triazol-4-yl)methyl)amino)-8-(methyl-sulfonyl)-4-(neopentylamino)quinoline-3-carbonitrile], in assay [1] (setting [3]), the pEC50 is 5.57. Further, in assay [2] (IC50 HTRF), the pIC50 is 7.25.

Consider `CC(C)(C)CNc1c(C#N)cnc2c(Cl)cc(N[C@H](c3cn(C4CC4)nn3)c3cccc4cnccc34)cc12` [Example 443, (S)-8-chloro-6-(((1-cyclopropyl-1H-1,2,3-triazol-4-yl)(isoquinolin-5-yl)methyl)amino)-4-(neopentylamino)quinoline-3-carbonitrile], for which the negative-log EC50 (pEC50) in assay [1] (setting [3]) is 7.72. The pIC50 in assay [2] (IC50 HTRF) was 9.00.

Regarding `CC(C)(C)CNc1c(C#N)cnc2c(C#N)cc(N[C@H](c3cn(C4(C(F)F)CC4)nn3)c3cccn4nccc34)cc12` [Example 444], the pEC50 in assay [1] (read-out: EC50 TNF, LPS-stimulated human monocytes, TNFα) was 7.48. Besides, the pIC50 in assay [2] (read-out: IC50 HTRF) was 8.70.

Take `CC(C)(C)CNc1c(C#N)cnc2c(Cl)cc(N[C@H](c3cn(C4CC4)nn3)c3cccn4cncc34)cc12` [Example 446, (S)-8-chloro-6-(((1-cyclopropyl-1H-1,2,3-triazol-4-yl)(imidazo[1,5-a]pyridin-8-yl)methyl)amino)-4-(neopentylamino)-quinoline-3-carbonitrile]: in assay [1] (setting [3]), the negative-log EC50 (pEC50) is 6.81. In addition, the pIC50 in assay [2] (IC50 HTRF) was 8.52.

Take `Cc1nc(F)ccc1[C@H](Nc1cc(Cl)c2ncc(C#N)c(NCC(C)(C)C)c2c1)c1cn(C2(C(F)F)CC2)nn1` [Example 447, (S)-8-chloro-6-(((1-(1-(difluoromethyl)-cyclopropyl)-1H-1,2,3-triazol-4-yl)(6-fluoro-2-methylpyridin-3-yl)methyl)-amino)-4-(neopentylamino)quinoline-3-carbonitrile]: the pEC50 in assay [1] (setting [3]) is 7.40. The pIC50 in assay [2] (IC50 HTRF) is 8.70.

Turning to `CC(C)(C)CNc1c(C#N)cnc2c(Cl)cc(N[C@H](c3cn(C4CC4)nn3)c3cccc4[nH]ncc34)cc12` [Example 448, (S)-8-chloro-6-(((1-cyclopropyl-1H-1,2,3-triazol-4-yl)(1H-indazol-4-yl)methyl)-amino)-4-(neopentylamino)quinoline-3-carbonitrile], in assay [1] (setting [3]), the negative logarithm of the EC50 (pEC50) was 7.36. In assay [2] (IC50 HTRF), this compound showed a negative logarithm of the IC50 (pIC50) of 8.70.

For the compound `CC(C)(C)CNc1c(C#N)cnc2c(Cl)cc(N[C@H](c3cn(C4CC4)nn3)c3cccc4scnc34)cc12` [Example 449, (S)-6-((benzo[d]thiazol-4-yl(1-cyclopropyl-1H-1,2,3-triazol-4-yl)methyl)amino)-8-chloro-4-(neopentylamino)quinoline-3-carbonitrile], the pEC50 in assay [1] (setting [3]) is 6.39. This compound showed a pIC50 in assay [2] (IC50 HTRF) of 7.72.

For the compound `CC(C)(C)CNc1c(C#N)cnc2c(Cl)cc(N[C@H](c3cn(C4CC4)nn3)c3cccc4cccnc34)cc12` [Example 450, (S)-8-chloro-6-(((1-cyclopropyl-1H-1,2,3-triazol-4-yl)(quinolin-8-yl)methyl)amino)-4-(neopentylamino)quinoline-3-carbonitrile], in assay [1] (setting [3]), the pEC50 was 6.45. For the same compound, the negative-log IC50 (pIC50) in assay [2] (IC50 HTRF) is 7.70.

As for `CC(C)(C)CNc1c(C#N)cnc2c(C#N)cc(N[C@H](c3cn(C4(C(F)(F)F)CC4)nn3)c3cccc4c3CNC4)cc12` [Example 451, (S)-6-((isoindolin-4-yl(1-(1-(trifluoro-methyl)cyclopropyl)-1H-1,2,3-triazol-4-yl)methyl)amino)-4-(neopentylamino)-quinoline-3,8-dicarbonitrile], in assay [1] (setting [3]), the pEC50 is 6.86. The pIC50 in assay [2] (IC50 HTRF) was 8.52.

Regarding `CC1(C)COCCC1Nc1c(C#N)cnc2c(C#N)cc(N[C@H](c3cn(C4(C(F)(F)F)CC4)nn3)c3cccc4ncsc34)cc12` (stereo partly drawn) [Example 452, 6-(((S)-benzo[d]thiazol-7-yl(1-(1-(trifluoromethyl)cyclopropyl)-1H-1,2,3-triazol-4-yl)methyl)amino)-4-((3,3-dimethyltetrahydro-2H-pyran-4-yl)amino)quinoline-3,8-dicarbonitrile], the pEC50 in assay [1] (setting [3]) is 7.14. In assay [2] (IC50 HTRF), this compound had a pIC50 of 8.40.

As to `CC(=O)c1cc(N[C@H](c2cn(C3(C(F)(F)F)CC3)nn2)c2cccc3ncsc23)cc2c(NCC(C)(C)C)c(C#N)cnc12` [Example 453, (S)-8-acetyl-6-((benzo[d]thiazol-7-yl(1-(1-(trifluoromethyl)cyclopropyl)-1H-1,2,3-triazol-4-yl)methyl)amino)-4-(neopentylamino)quinoline-3-carbonitrile], the pEC50 in assay [1] (setting [3]) is 6.74. Further, the pIC50 in assay [2] (IC50 HTRF) was 8.05.

On to `Cc1nc(F)ccc1[C@H](Nc1cc(C#N)c2ncc(C#N)c(NCC(C)(C)C)c2c1)c1cn(C2CC2)nn1` [Example 454, (S)-6-(((1-cyclopropyl-1H-1,2,3-triazol-4-yl)(6-fluoro-2-methylpyridin-3-yl)methyl)amino)-4-(neopentylamino)-quinoline-3,8-dicarbonitrile], for which the pEC50 in assay [1] (setting [3]) is 7.49. In assay [2] (IC50 HTRF), this compound showed a pIC50 of 8.70.

On to `CC(C)(C)ONc1c(C#N)cnc2c(C#N)cc(N[C@H](c3cn(C4CC4)nn3)c3cccc4ncsc34)cc12` [Example 456, (S)-6-((benzo[d]thiazol-7-yl(1-cyclopropyl-1H-1,2,3-triazol-4-yl)methyl)amino)-4-(tert-butoxyamino)quinoline-3,8-dicarbonitrile], for which the negative logarithm of the EC50 (pEC50) in assay [1] (setting [3]) was 6.00. This compound also showed a negative logarithm of the IC50 (pIC50) in assay [2] (IC50 HTRF) of 7.29.

Turning to `CC(C)(C)ONc1c(C#N)cnc2c(I)cc(N[C@H](c3cn(C4CC4)nn3)c3cccc4ncsc34)cc12` [Example 457, (S)-6-((benzo[d]thiazol-7-yl(1-cyclopropyl-1H-1,2,3-triazol-4-yl)methyl)amino)-4-(tert-butoxyamino)-8-iodoquinoline-3-carbonitrile], in assay [1] (setting [3]), the negative logarithm of the EC50 (pEC50) is 6.00. In assay [2] (IC50 HTRF), this compound showed a negative logarithm of the IC50 (pIC50) of 6.50.

In the case of `Cn1cnc2cccc([C@H](Nc3cc(Cl)c4ncc(C#N)c(NCC(C)(C)C)c4c3)c3cn(C4CC4)nn3)c21` [Example 459, (S)-8-chloro-6-(((1-cyclopropyl-1H-1,2,3-triazol-4-yl)(1-methyl-1H-benzo[d]imidazol-7-yl)methyl)amino)-4-(neopentylamino)quinoline-3-carbonitrile], in assay [1] (setting [3]), the pEC50 was 7.30. The compound also had a negative-log IC50 (pIC50) in assay [2] (IC50 HTRF) of 8.52.

As for `CC(C)(C)CNc1c(C#N)cnc2c(C#N)cc(N[C@H](c3cn(CC(F)(F)F)nn3)c3cccc4ncsc34)cc12` [Example 460, (S)-6-((benzo[d]thiazol-7-yl(1-(2,2,2-trifluoroethyl)-1H-1,2,3-triazol-4-yl)methyl)amino)-4-(neopentylamino)-quinoline-3,8-dicarbonitrile], the negative-log EC50 (pEC50) in assay [1] (setting [3]) was 6.81. This compound also had a negative-log IC50 (pIC50) in assay [2] (IC50 HTRF) of 8.30.

Regarding `CC(C)(C)CNc1c(C#N)cnc2c(Cl)cc(N[C@H](c3cn(C4(C(F)(F)F)CC4)nn3)c3cccc4ncccc34)cc12` [Example 461, (S)-8-chloro-4-(neopentylamino)-6-((quinolin-5-yl(1-(1-(trifluoromethyl)-cyclopropyl)-1H-1,2,3-triazol-4-yl)methyl)amino)quinoline-3-carbonitrile], the pEC50 in assay [1] (setting [3]) was 6.81. In assay [2] (IC50 HTRF), the negative-log IC50 (pIC50) was 7.77.

In the case of `CC(C)(C)CNc1c(C#N)cnc2c(Cl)cc(N[C@H](c3cn(C4(C(F)(F)F)CC4)nn3)c3cccc4cnccc34)cc12` [Example 462, (S)-8-chloro-6-((isoquinolin-5-yl(1-(1-(trifluoromethyl)cyclopropyl)-1H-1,2,3-triazol-4-yl)methyl)amino)-4-(neopentylamino)quinoline-3-carbonitrile], the pEC50 in assay [1] (setting [3]) was 5.06. In assay [2] (IC50 HTRF), this compound showed a pIC50 of 6.79.

For `CC(C)(C)CNc1c(C#N)cnc2c(Cl)cc(N[C@H](c3cn(C4(C(N)=O)CCC4)nn3)c3cccc4ncsc34)cc12` [Example 463, (S)-1-(4-(benzo[d]thiazol-7-yl((8-chloro-3-cyano-4-(neopentylamino)quinolin-6-yl)amino)methyl)-1H-1,2,3-triazol-1-yl)cyclobutane-1-carboxamide], in assay [1] (setting [3]), the pEC50 is 7.20. In assay [2] (IC50 HTRF), this compound had a negative logarithm of the IC50 (pIC50) of 8.70.

For `CC(C)(C)CNc1c(C#N)cnc2c(C#N)cc(N[C@H](c3cn(C4(c5ccncc5)CC4)nn3)c3cccc4ncsc34)cc12` [Example 464, (S)-6-((benzo[d]thiazol-7-yl(1-(1-(pyridin-4-yl)cyclopropyl)-1H-1,2,3-triazol-4-yl)methyl)amino)-4-(neopentylamino)-quinoline-3,8-dicarbonitrile], in assay [1] (setting [3]), the negative-log EC50 (pEC50) was 7.80. The pIC50 in assay [2] (IC50 HTRF) was 9.00.

`CC(C)(C)CNc1c(C#N)cnc2c(C#N)cc(N[C@H](c3cn(C4(CO)CC4)nn3)c3cccc4ncsc34)cc12` [Example 465, (S)-6-((benzo[d]thiazol-7-yl(1-(1-(hydroxymethyl)cyclopropyl)-1H-1,2,3-triazol-4-yl)methyl)amino)-4-(neopentylamino)quinoline-3,8-dicarbonitrile]: the negative logarithm of the EC50 (pEC50) in assay [1] (setting [3]) was 6.81. The compound also had a pIC50 in assay [2] (IC50 HTRF) of 8.70.
